From patent publication US20250360130A1, “METHODS OF TREATING INDOLENT SYSTEMIC MASTOCYTOSIS” (Telios Pharma Inc., priority 2024, published 2025)

Tests used:
human mast cells [1] = assay: Calcium flux assay in antigen-stimulated human mast cells; assay type: cell-based; conditions: 2 hours treatment, NP-BSA stimulation
Protocol: (§1) Human mast cells were derived from bone marrow CD34+ cells from six healthy donors for up to eight weeks by culturing CD34+ cells in StemSpan SFEM II (Stem Cell Technologies) supplemented with stem cell factor (SCF; 100 ng/mL; R&D System), IL-6 (R&D Systems), IL-3 (R&D Systems) and 1% penicillin/streptomycin (P/S; Gibco) for the first 10 days and in StemSpan SFEM II supplemented with SCF and IL-6 and 1% P/S for the remaining time in culture. […] Supernatant was collected and histamine levels were measured using a Histamine ELISA kit (Eagle Biosciences). […] Percent of activated mast cells was calculated as number of activated mast cells over the total number of mast cells.
Compound 128 Inhibits Calcium Signaling in Human Mast Cells. […] The median fluorescence intensity of cytosolic calcium was measured across the stimulation time period and graphed to represent the calcium influx profile. The area under the curve (AUC) of the calcium influx profile was calculated and normalized as a percent of stimulated control. […]

basophils = assay: Anti-IgE induced IL-4 production from basophils in whole blood; assay type: cell-based, human; conditions: whole blood from a healthy donor, two hours treatment, anti-IgE six hours
Protocol: Human mast cells lines, ROSA with wildtype KIT and ROSA […] with D816V KIT mutation (ISM-like cells), were licensed from CRNS Innovation and cultured with or without stem cell factor (100 ng/ml), respectively (FIG. 12A). ROSA cells were stimulated with IL-4 (20 ng/ml; R&D Systems) for 18 hours, stained for FcεRIα (Becton Dickinson) for 30 minutes on ice, washed twice with FACS buffer and data was acquired on a flow cytometer. The median fluorescence intensity of FcεRIα was measured. […] Whole blood from a healthy donor was treated with Compound 128 for two hours and the basophils were stimulated with anti-IgE (1 μg/mL; Beckman Coulter) for six hours (FIG. 12B). Plasma was collected and IL-4 levels were measured using the BD CBA human soluble protein master buffer kit and BD CBA human soluble protein flex set for IL-4 (Becton Dickinson). A four-parameter logistic regression analysis was performed on the cytokine levels to determine the EC50 and EC90. […] Therefore, Compound 128 may indirectly effect FcεRI expression by the reduction of IL-4 levels.

human mast cells [2] = assay: Antigen-induced cytokine production in ISM-like and healthy mast cells; assay type: cell-based; conditions: two hours treatment, antigen four hours
Protocol: as §1
Human mast cells were differentiated from bone marrow CD34+ cells from two healthy donors, cultured and sensitized in ISM-like and healthy mast cell conditions as set forth in Example 4, treated with Compound 128 for two hours and stimulated with antigen for four hours. Supernatant was collected and cytokine levels were measured using the BD Cytometric Bead Array (CBA) human soluble protein master buffer kit (Becton Dickinson) and BD CBA human soluble protein flex sets for IL-8, MCP-1, MIP-1a, IL-13 and IL-10 (Becton Dickinson). […]

C=CC(=O)N1CCC(F)(CNc2ncnc(N)c2-c2ccc(Oc3ccccc3)cc2)CC1 [Compound 128, 1-(4-(((6-amino-5-(4-phenoxyphenyl)pyrimidin-4-yl)amino)methyl)-4-fluoropiperidin-1-yl)prop-2-en-1-one]
calcium influx, percent of stimulated control (human mast cells [1]; ISM-like (+SCF) mast cells): less than 7%
calcium influx, percent of stimulated control (human mast cells [1]; healthy (−SCF) mast cells): < 3%
IgE-mediated IL-4 production (basophils): potently inhibited
IgE-mediated cytokine production (IL-8, MCP-1, MIP-1a, IL-13, IL-10) (human mast cells [2]): inhibited
